Test results: patent US20050106729A1, “Gene transfer methods and compositions” (priority 2002, published 2005)

Tested on: MMP-7 deficient corneal epithelial cells co-infected with CFB-EGSH-MMP-7 and FB-ERV retroviruses (ecdysone receptor)
Assay: Ponasterone A induction of MMP-7 expression in co-infected corneal epithelial cells (immunohistochemistry)
Format: cell-based, mouse
Conditions: 10 μM ponasterone A; two days after induction; induced vs non-induced infected cells
Source text: A cDNA encoding mouse pro matrix metalloproteinase-7 (MMP-7) was obtained from the I.M.A.G.E. clone consortium. Using a PCR-based cloning strategy, the cDNA was inserted into the multiple cloning site of pCFP-EGSH (a plasmid vector including retroviral packaging signals and a multiple cloning site downstream of an ecdysone hormone receptor responsive promoter) to make plasmid pCFB-EGSH-MMP-7. A second plasmid used in these experiments was pFB-ERV, a plasmid vector with retroviral packaging signals, and expressing the constituents of functional ecdysone hormone receptors capable of binding ponasterone A and activating the ecdysone responsive promoter in pCFP-EGSH.
Replication deficient retroviral supematants from pCGB-EGSH-MMP-7 and […] were produced separately. The plasmid for pCFB-EGSH-MMP-7 or pFB-EGSH was co-transfected using a liposomal method into HEK293 cells along with the plasmids pEnv (expressing a retroviral ecotropic envelope protein) and pGag-Pol (expressing the gag and pol genes required for assembly of infectious retroviral particles). […]
MMP-7 deficient corneal epithelial cells co-infected with CFB-EGSH-MMP-7 and FB-ERV replication deficient retroviruses were induced with 10 μM ponasterone A. an ecdysone analog and a ligand for the ecdysone receptor. […] Immunolocalization was determined using epifluorescence microscopy.

CC(C)CC[C@@H](O)[C@](C)(O)[C@H]1CC[C@@]2(O)C3=CC(=O)[C@@H]4C[C@@H](O)[C@@H](O)C[C@]4(C)[C@H]3CC[C@]12C [ponasterone A]
Expression of MMP-7 (immunolocalization, epifluorescence microscopy): Expression of MMP-7 was seen only in infected epithelial cells induced with ponasterone A
